# Measured values reported in patent US20200407717A1, “METHODS OF MODULATING ANTISENSE ACTIVITY” (Ionis Pharmaceuticals, Inc., priority 2018, published 2020).
# e = 2'-O-(2-methoxyethyl) (MOE); d = 2'-deoxy (DNA)
# System: Drosha mRNA
# Assay: Antisense activity by RT-qPCR, Drosha, A431 cells
# Assay type: cell-based, Human
# Protocol: A431 cells were grown at 10,000 cells per well and pre-treated with a variety of growth factors to determine if the addition of exogenous growth factors affects antisense activity or uptake of modified antisense oligonucleotides in a cell. The growth factors used were EGF, insulin growth factor (IGF), transforming growth factor (TGF), […] (VEGF), hepatocyte growth factor (HGF), platelet growth factor (PGF) and fibroblasts growth factor (FGF). To test antisense activity, cells were treated for 4 hours with a growth factor or vehicle alone, and then treated with compound no. 25690 (complementary to Drosha), compound no. 395254 (complementary to Malat1), or vehicle alone. RNA was isolated from the cells and Drosha or Malat1 RNA levels were measured by RT-qPCR. Human primer probe set 13816 (forward sequence […], designated herein as SEQ ID NO: 3; reverse sequence […], designated herein as SEQ ID NO: 4; probe sequence […], designated herein as SEQ ID NO: 5) was used to measure Drosha mRNA levels and primer probe set RTS2736 (forward sequence […], designated herein as SEQ ID NO: 6; reverse sequence […], designated herein as SEQ ID NO: 7; probe sequence TGCCACATCGCCACCCCGT, designated herein as SEQ ID NO: 8) was used to measure Malat1 RNA levels. Drosha and Malat1 RNA levels were normalized to total RNA content, as measured by RIBOGREEN®. Results are presented in the tables below as normalized RNA levels, relative to untreated control cells.
# A431 cells were treated with EGF or TGF at 200 ng/mL in the presence or absence of 1 μM of the EGFR tyrosine kinase inhibitor PD174265. The cells were then treated with compound no. 25690 or compound no. 395254 as in Example 8. Total RNA was isolated and analyzed by RT-qPCR, as in Example 8.
# Following siRNA treatment, cells were treated with compound no. 25690 or compound no. 395254 in the presence or absence of EGF. 16 hours after treatment with a PS-ASO with or without EGF, cells were harvested, and RNA levels were analyzed via RT-qPCR as in Example 8.
sequence,measurement,setting,value
"AGGAAGGAAGCTGGCGATCT (sugars from the 5' end e5 d10 e5, all phosphorothioate, methylation of C not given here) [compound 25690]",Drosha mRNA (% Control),"6250 nM, Control",66.2 % Control
same,Drosha mRNA (% Control),"6250 nM, Control Luciferase siRNA",35.2 % Control
same,Drosha mRNA (% Control),"6250 nM, Control Luciferase siRNA, Table 26",47.8 % Control
same,Drosha mRNA (% Control),"6250 nM, Control luciferase + EGF",40.9 % Control
same,Drosha mRNA (% Control),"6250 nM, Control, Table 20",54.0 % Control
same,Drosha mRNA (% Control),"6250 nM, EGF",48.4 % Control
same,Drosha mRNA (% Control),"6250 nM, EGF+PD174265",64.7 % Control
same,Drosha mRNA (% Control),"6250 nM, EGFR siRNA-1",41.9 % Control
same,Drosha mRNA (% Control),"6250 nM, EGFR siRNA-2",39.2 % Control
same,Drosha mRNA (% Control),"6250 nM, EGFR siRNA-2 + EGF",62.5 % Control
same,Drosha mRNA (% Control),"6250 nM, EGFR siRNA-2, Table 26",64.8 % Control
same,Drosha mRNA (% Control),"6250 nM, TGF",43.1 % Control
same,Drosha mRNA (% Control),"6250 nM, TGF+PD174265",57.0 % Control
same,Drosha mRNA (% Control),"10000 nM, Control",48.2 % Control
same,Drosha mRNA (% Control),"10000 nM, EGF",27.7 % Control
same,Drosha mRNA (% Control),"10000 nM, TGF",29.7 % Control
same,Drosha mRNA (% Control),"12500 nM, Control",56.4 % Control
same,Drosha mRNA (% Control),"12500 nM, Control Luciferase siRNA",29.3 % Control
same,Drosha mRNA (% Control),"12500 nM, Control Luciferase siRNA, Table 26",41.0 % Control
same,Drosha mRNA (% Control),"12500 nM, Control luciferase + EGF",30.9 % Control
same,Drosha mRNA (% Control),"12500 nM, Control, Table 20",47.6 % Control
same,Drosha mRNA (% Control),"12500 nM, EGF",40.1 % Control
same,Drosha mRNA (% Control),"12500 nM, EGF+PD174265",53.6 % Control
same,Drosha mRNA (% Control),"12500 nM, EGFR siRNA-1",32.4 % Control
same,Drosha mRNA (% Control),"12500 nM, EGFR siRNA-2",39.1 % Control
same,Drosha mRNA (% Control),"12500 nM, EGFR siRNA-2 + EGF",47.1 % Control
same,Drosha mRNA (% Control),"12500 nM, EGFR siRNA-2, Table 26",49.2 % Control
same,Drosha mRNA (% Control),"12500 nM, TGF",29.7 % Control
same,Drosha mRNA (% Control),"12500 nM, TGF+PD174265",44.9 % Control
same,Drosha mRNA (% Control),"20000 nM, Control",48.8 % Control
same,Drosha mRNA (% Control),"20000 nM, EGF",25.4 % Control
same,Drosha mRNA (% Control),"20000 nM, TGF",25.5 % Control
same,Drosha mRNA (% Control),"25000 nM, Control",45.2 % Control
same,Drosha mRNA (% Control),"25000 nM, Control Luciferase siRNA",24.0 % Control
same,Drosha mRNA (% Control),"25000 nM, Control Luciferase siRNA, Table 26",37.2 % Control
same,Drosha mRNA (% Control),"25000 nM, Control luciferase + EGF",27.1 % Control
same,Drosha mRNA (% Control),"25000 nM, Control, Table 20",38.9 % Control
same,Drosha mRNA (% Control),"25000 nM, EGF",40.1 % Control
same,Drosha mRNA (% Control),"25000 nM, EGF+PD174265",51.2 % Control
same,Drosha mRNA (% Control),"25000 nM, EGFR siRNA-1",29.9 % Control
same,Drosha mRNA (% Control),"25000 nM, EGFR siRNA-2",35.5 % Control
same,Drosha mRNA (% Control),"25000 nM, EGFR siRNA-2 + EGF",41.2 % Control
same,Drosha mRNA (% Control),"25000 nM, EGFR siRNA-2, Table 26",42.3 % Control
same,Drosha mRNA (% Control),"25000 nM, TGF",23.5 % Control
same,Drosha mRNA (% Control),"25000 nM, TGF+PD174265",37.1 % Control
same,Drosha mRNA (% Control),"40000 nM, Control",44.3 % Control
same,Drosha mRNA (% Control),"40000 nM, EGF",23.6 % Control
same,Drosha mRNA (% Control),"40000 nM, TGF",22.7 % Control
same,Drosha mRNA (% Control),"50000 nM, Control",40.2 % Control
same,Drosha mRNA (% Control),"50000 nM, Control Luciferase siRNA",22.4 % Control
same,Drosha mRNA (% Control),"50000 nM, Control Luciferase siRNA, Table 26",33.1 % Control
same,Drosha mRNA (% Control),"50000 nM, Control luciferase + EGF",23.2 % Control
same,Drosha mRNA (% Control),"50000 nM, Control, Table 20",28.2 % Control
same,Drosha mRNA (% Control),"50000 nM, EGF",35.1 % Control
same,Drosha mRNA (% Control),"50000 nM, EGF+PD174265",45.3 % Control
same,Drosha mRNA (% Control),"50000 nM, EGFR siRNA-1",25.7 % Control
same,Drosha mRNA (% Control),"50000 nM, EGFR siRNA-2",31.2 % Control
same,Drosha mRNA (% Control),"50000 nM, EGFR siRNA-2 + EGF",31.3 % Control
same,Drosha mRNA (% Control),"50000 nM, EGFR siRNA-2, Table 26",29.3 % Control
same,Drosha mRNA (% Control),"50000 nM, TGF",17.2 % Control
same,Drosha mRNA (% Control),"50000 nM, TGF+PD174265",35.2 % Control
same,Drosha mRNA (% Control),"100000 nM, Control",39.2 % Control
same,Drosha mRNA (% Control),"100000 nM, Control Luciferase siRNA",19.7 % Control
same,Drosha mRNA (% Control),"100000 nM, Control Luciferase siRNA, Table 26",32.1 % Control
same,Drosha mRNA (% Control),"100000 nM, Control luciferase + EGF",21.0 % Control
same,Drosha mRNA (% Control),"100000 nM, Control, Table 20",25.2 % Control
same,Drosha mRNA (% Control),"100000 nM, EGF",32.9 % Control
same,Drosha mRNA (% Control),"100000 nM, EGF+PD174265",35.2 % Control
same,Drosha mRNA (% Control),"100000 nM, EGFR siRNA-1",24.1 % Control
same,Drosha mRNA (% Control),"100000 nM, EGFR siRNA-2",28.4 % Control
same,Drosha mRNA (% Control),"100000 nM, EGFR siRNA-2 + EGF",30.4 % Control
same,Drosha mRNA (% Control),"100000 nM, EGFR siRNA-2, Table 26",31.2 % Control
same,Drosha mRNA (% Control),"100000 nM, TGF",15.2 % Control
same,Drosha mRNA (% Control),"100000 nM, TGF+PD174265",30.2 % Control
same,Drosha mRNA (% Control),"200000 nM, Control",30.2 % Control
same,Drosha mRNA (% Control),"200000 nM, Control Luciferase siRNA",14.9 % Control
same,Drosha mRNA (% Control),"200000 nM, Control Luciferase siRNA, Table 26",25.2 % Control
same,Drosha mRNA (% Control),"200000 nM, Control luciferase + EGF",21.4 % Control
same,Drosha mRNA (% Control),"200000 nM, Control, Table 20",21.2 % Control
same,Drosha mRNA (% Control),"200000 nM, EGF",25.1 % Control
same,Drosha mRNA (% Control),"200000 nM, EGF+PD174265",33.2 % Control
same,Drosha mRNA (% Control),"200000 nM, EGFR siRNA-1",18.5 % Control
same,Drosha mRNA (% Control),"200000 nM, EGFR siRNA-2",20.8 % Control
same,Drosha mRNA (% Control),"200000 nM, EGFR siRNA-2 + EGF",25.1 % Control
same,Drosha mRNA (% Control),"200000 nM, EGFR siRNA-2, Table 26",26.1 % Control
same,Drosha mRNA (% Control),"200000 nM, TGF",15.2 % Control
same,Drosha mRNA (% Control),"200000 nM, TGF+PD174265",27.2 % Control
same,IC50,"Control (no growth factor), Table 15",1470 ± 50 nM
same,IC50,"Control Luciferase siRNA, Table 24",1310 ± 40 nM
same,IC50,"Control Luciferase siRNA, Table 26",1500 ± 50 nM
same,IC50,"Control luciferase + EGF, Table 26",630 ± 40 nM
same,IC50,"Control, Table 18",1620 ± 90 nM
same,IC50,"Control, Table 20",1390 ± 60 nM
same,IC50,"EGF 200 ng/mL + 1 μM PD174265, Table 18",1500 ± 50 nM
same,IC50,"EGF 200 ng/mL, Table 18",580 ± 70 nM
same,IC50,"EGF pre-treatment 4 hours, Table 15",600 ± 80 nM
same,IC50,"EGFR siRNA-1, Table 24",2110 ± 100 nM
same,IC50,"EGFR siRNA-2 + EGF, Table 26",2330 ± 110 nM
same,IC50,"EGFR siRNA-2, Table 24",2790 ± 70 nM
same,IC50,"EGFR siRNA-2, Table 26",2730 ± 100 nM
same,IC50,"TGF 200 ng/mL + 1 μM PD174265, Table 20",1490 ± 40 nM
same,IC50,"TGF 200 ng/mL, Table 20",500 ± 40 nM
same,IC50,"TGF pre-treatment 4 hours, Table 15",590 ± 70 nM
same,"half maximal inhibitory concentration, Drosha","cells treated with IGF, FGF, HGF, VEGF or PGF relative to PS-ASO alone (data not shown)",unchanged
